Laboratory results reported in ChEMBL document CHEMBL1201862, “PubChem BioAssay data set” (2004).
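96-well plates; 48 h exposure; 5 concentrations. Endpoints by linear interpolation between flanking doses. Not reached: highest tested concentration assigned. GI50 is the concentration that inhibits growth by half.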 Active and inactive are the calls of the source. No stated cut-off is given here; in the data, active = GI50 up to about 1.1 µM and inactive = higher.

How the values were obtained:
Experiment in all cases: growth of human tumour cells (NCI), 48 h
[1] = system: A498
[2] = system: A549
[3] = system: CAKI-1
[4] = system: COLO 205
[5] = system: HOP-62
[6] = system: Hs-578T
[7] = system: IGROV-1
[8] = system: K562
[9] = system: LOX IMVI
[10] = system: MDA-N
[11] = system: MOLT-4
[12] = system: SF-268
[13] = system: SF-295
[14] = system: SF-539
[15] = system: SK-MEL-28
[16] = system: SK-MEL-2
[17] = system: SK-MEL-5
[18] = system: SNB-75
[19] = system: UACC-257
[20] = system: NCI-H226

SMILES	GI50 [1]	GI50 [2]	GI50 [3]	GI50 [4]	GI50 [5]	GI50 [6]	GI50 [7]	GI50 [8]	GI50 [9]	GI50 [10]	GI50 [11]	GI50 [12]	GI50 [13]	GI50 [14]	GI50 [15]	GI50 [16]	GI50 [17]	GI50 [18]	GI50 [19]	GI50 [20]
COC1=CC(=O)c2c(cc(COP(=O)(N(C)CCBr)N(C)CCBr)n2C)C1=O	1.97 µM (inactive)	0.185 µM (active)	< 0.0182 µM (active)	0.865 µM (active)	< 0.0322 µM (active)	1.77 µM (inactive)	2.31 µM (inactive)	1.52 µM (inactive)	< 0.0238 µM (active)	1.21 µM (inactive)	< 0.0173 µM (active)	0.183 µM (active)	< 0.0164 µM (active)	< 0.0178 µM (active)	1.59 µM (inactive)	1.89 µM (inactive)	1.07 µM (active)	0.102 µM (active)	2.7 µM (inactive)	
CNCC(SC)c1ccc(O)c(O)c1 (configuration not stated)	> 100 µM (inactive)	> 100 µM (inactive)	20.5 µM (inactive)	17.1 µM (inactive)	36.4 µM (inactive)	66.1 µM (inactive)	34.3 µM (inactive)	23.7 µM (inactive)	24.7 µM (inactive)	18.5 µM (inactive)	17.2 µM (inactive)	38.1 µM (inactive)	> 100 µM (inactive)		53.2 µM (inactive)	> 100 µM (inactive)	52.8 µM (inactive)	28.8 µM (inactive)	14.1 µM (inactive)	> 100 µM (inactive)
c1ccc([B-]2(c3ccccc3)OCCc3cccc[n+]32)cc1	19.6 µM (inactive)	84.9 µM (inactive)	33 µM (inactive)	26.2 µM (inactive)	> 100 µM (inactive)	37.7 µM (inactive)	66.1 µM (inactive)	> 100 µM (inactive)	97.3 µM (inactive)	50.2 µM (inactive)	56.2 µM (inactive)	97.5 µM (inactive)	67 µM (inactive)	28.5 µM (inactive)	47.8 µM (inactive)	75.9 µM (inactive)	41.2 µM (inactive)		80.7 µM (inactive)	50.1 µM (inactive)
Nc1ncn(C/C=C/c2ccccc2)c2ncnc1-2	75.3 µM (inactive)	> 100 µM (inactive)	> 100 µM (inactive)	> 100 µM (inactive)	> 100 µM (inactive)	> 100 µM (inactive)	> 100 µM (inactive)	8.93 µM (inactive)	> 100 µM (inactive)	> 100 µM (inactive)	16.6 µM (inactive)	> 100 µM (inactive)	> 100 µM (inactive)	> 100 µM (inactive)	> 100 µM (inactive)	> 100 µM (inactive)	> 100 µM (inactive)	70.3 µM (inactive)	> 100 µM (inactive)	
CC(C)/C(Cl)=N\OC(NC(=O)P(=O)(c1ccccc1)c1ccccc1)(C(F)(F)F)C(F)(F)F	14.9 µM (inactive)	5.15 µM (inactive)	23.7 µM (inactive)	11.7 µM (inactive)	17.3 µM (inactive)	23.9 µM (inactive)	10.8 µM (inactive)	4.25 µM (inactive)	11.3 µM (inactive)	19.5 µM (inactive)	8.05 µM (inactive)	12.1 µM (inactive)	11.6 µM (inactive)	13.5 µM (inactive)	14.9 µM (inactive)		13.8 µM (inactive)	< 0.01 µM (active)	17.8 µM (inactive)	10.3 µM (inactive)
COc1cccc(-c2ccc3c4c2O[C@H]2C(=O)CC[C@@]5(O)[C@@H](C3)N(CC3CC3)CC[C@]425)c1	18.7 µM (inactive)	18.2 µM (inactive)	16.6 µM (inactive)	13 µM (inactive)	19.5 µM (inactive)	12.3 µM (inactive)	21.8 µM (inactive)	13.5 µM (inactive)	16.3 µM (inactive)	18.9 µM (inactive)	10.2 µM (inactive)	20.8 µM (inactive)	18.4 µM (inactive)	14.7 µM (inactive)	27.4 µM (inactive)	19 µM (inactive)	14.8 µM (inactive)		25.9 µM (inactive)	11.6 µM (inactive)
CC(=O)O[C@H]1C(=O)[C@@]2(C)[C@H]([C@H](OC(=O)c3ccccc3)[C@]3(O)C[C@H](OC(=O)[C@H](O)[C@@H](NC(=O)c4cccc(N=[N+]=[N-])c4)c4ccccc4)C(C)=C1C3(C)C)[C@]1(OC(C)=O)CO[C@@H]1C[C@@H]2O	0.0408 µM (active)	0.0108 µM (active)	1.07 µM (active)	0.00301 µM (active)	0.00813 µM (active)	< 0.0025 µM (active)	0.00679 µM (active)	< 0.0025 µM (active)	0.00789 µM (active)	< 0.0025 µM (active)	0.00453 µM (active)	0.0289 µM (active)	0.0247 µM (active)	< 0.0025 µM (active)	0.425 µM (active)		0.00507 µM (active)	0.0173 µM (active)	0.00621 µM (active)	0.00855 µM (active)
COc1c(OC/C=C(\C)CCC=C(C)C)ccc2ccc(=O)oc12 [COLLININ]	> 100 µM (inactive)	> 100 µM (inactive)	> 100 µM (inactive)	> 100 µM (inactive)	> 100 µM (inactive)	90.4 µM (inactive)	> 100 µM (inactive)	> 100 µM (inactive)	> 100 µM (inactive)	> 100 µM (inactive)	56.5 µM (inactive)	96.8 µM (inactive)	> 100 µM (inactive)	> 100 µM (inactive)	> 100 µM (inactive)	> 100 µM (inactive)	48.1 µM (inactive)	> 100 µM (inactive)	> 100 µM (inactive)	
CC(=O)CC12NC(=O)N(C)N=C1N(C)C(=O)N(C)C2=O (configuration not stated)	31.9 µM (inactive)	> 100 µM (inactive)	> 100 µM (inactive)	52.4 µM (inactive)	51.6 µM (inactive)	> 100 µM (inactive)	> 100 µM (inactive)	40.1 µM (inactive)	19.8 µM (inactive)	22.3 µM (inactive)	44.8 µM (inactive)	78.2 µM (inactive)	27.4 µM (inactive)	25.7 µM (inactive)	57.3 µM (inactive)			68.1 µM (inactive)	18.6 µM (inactive)	> 100 µM (inactive)
Cc1nc2ccccc2c(=O)n1NC(=S)Nc1ccc(Cl)cc1[N+](=O)[O-]	> 100 µM (inactive)	> 100 µM (inactive)	> 100 µM (inactive)	> 100 µM (inactive)	> 100 µM (inactive)	> 100 µM (inactive)	> 100 µM (inactive)	> 100 µM (inactive)		> 100 µM (inactive)	> 100 µM (inactive)	> 100 µM (inactive)	> 100 µM (inactive)	> 100 µM (inactive)	> 100 µM (inactive)	> 100 µM (inactive)	> 100 µM (inactive)	> 78.3 µM (inactive)	> 100 µM (inactive)	> 10 µM (inactive)
Oc1cc(-c2cccc(F)c2)nc2cc3c(cc12)OCO3	0.157 µM (active)	0.119 µM (active)	0.0513 µM (active)	0.0743 µM (active)	0.165 µM (active)	0.0226 µM (active)	0.102 µM (active)	0.0653 µM (active)	0.0692 µM (active)	0.0111 µM (active)	0.136 µM (active)	0.115 µM (active)	0.102 µM (active)	0.0573 µM (active)	0.0439 µM (active)	0.0308 µM (active)	0.03 µM (active)	0.0334 µM (active)	0.0236 µM (active)	
CC(C)(C)CNCCCNc1ccc(Cl)cc1	14.8 µM (inactive)	> 100 µM (inactive)		21 µM (inactive)	97.1 µM (inactive)	40.1 µM (inactive)	58.1 µM (inactive)	< 0.01 µM (active)	25.3 µM (inactive)	46 µM (inactive)	3.33 µM (inactive)	65.6 µM (inactive)	17.1 µM (inactive)	92.9 µM (inactive)	20.9 µM (inactive)	24 µM (inactive)			22.8 µM (inactive)	18.5 µM (inactive)
C/C(=C\CNc1nc(Cl)nc2[nH]cnc12)CO	> 100 µM (inactive)	> 100 µM (inactive)	> 100 µM (inactive)	> 100 µM (inactive)	> 100 µM (inactive)	> 100 µM (inactive)	> 100 µM (inactive)	> 100 µM (inactive)	> 100 µM (inactive)	> 100 µM (inactive)	> 100 µM (inactive)	> 100 µM (inactive)	> 100 µM (inactive)	> 100 µM (inactive)	> 100 µM (inactive)		> 100 µM (inactive)	96.4 µM (inactive)	> 100 µM (inactive)	> 100 µM (inactive)
Cc1ccc(N2CCC3(CC2)OCCO3)cc1	> 100 µM (inactive)	> 100 µM (inactive)	> 100 µM (inactive)	> 100 µM (inactive)	> 100 µM (inactive)	> 100 µM (inactive)	> 100 µM (inactive)	> 100 µM (inactive)		> 100 µM (inactive)	> 100 µM (inactive)	> 100 µM (inactive)	> 100 µM (inactive)	> 100 µM (inactive)	> 100 µM (inactive)	> 100 µM (inactive)	> 100 µM (inactive)	> 100 µM (inactive)	> 100 µM (inactive)	> 100 µM (inactive)
O=C(/C=C/c1ccc(O)c(O)c1O)OCCc1ccccc1	74.6 µM (inactive)	26.2 µM (inactive)	> 100 µM (inactive)	27.8 µM (inactive)	26.2 µM (inactive)	> 100 µM (inactive)	32.9 µM (inactive)	11.6 µM (inactive)	15.2 µM (inactive)	13 µM (inactive)	23.6 µM (inactive)	32.1 µM (inactive)	19.2 µM (inactive)	37.3 µM (inactive)	> 100 µM (inactive)	61.9 µM (inactive)	> 100 µM (inactive)		> 100 µM (inactive)	27.7 µM (inactive)
